Results taken from ChEMBL document CHEMBL5303304, “EUbOPEN Chemogenomics Library - IncuCyte” (2023).

Legend:
Type in all cases: toxicity, cell-based
HEK-293T = assay: Incucyte cell viability with HEK293T; conditions: human, 10 µM, compound concentration 10 uM
Fibroblast = assay: Incucyte cell viability with human fibroblast; conditions: 10 µM, compound concentration 10 uM
U2OS = assay: Incucyte cell viability with U2OS; conditions: human, 10 µM, compound concentration 10 uM
Also: unitless GR value; below 1 slowed growth and below 0 cell loss.

Structure (SMILES)	Growth Rate (HEK-293T; 18 h, replicate number 1)	Growth Rate (HEK-293T; 24 h, replicate number 1)	Growth Rate (Fibroblast; 0 h, replicate number 2)	Growth Rate (Fibroblast; 6 h, replicate number 2)	Growth Rate (U2OS; 6 h, replicate number 1)	Growth Rate (U2OS; 12 h, replicate number 1)	Growth Rate (U2OS; 12 h, replicate number 2)	Growth Rate (U2OS; 18 h, replicate number 1)	Growth Rate (U2OS; 24 h, replicate number 1)	Growth Rate (HEK-293T; 6 h, replicate number 1)	Growth Rate (HEK-293T; 6 h, replicate number 2)	Growth Rate (HEK-293T; 12 h, replicate number 1)	Growth Rate (HEK-293T; 12 h, replicate number 2)	Growth Rate (Fibroblast; 24 h, replicate number 1)	Growth Rate (HEK-293T; 0 h, replicate number 1)	Growth Rate (U2OS; 0 h, replicate number 2)	Growth Rate (U2OS; 6 h, replicate number 2)	Growth Rate (HEK-293T; 18 h, replicate number 2)	Growth Rate (HEK-293T; 24 h, replicate number 2)	Growth Rate (U2OS; 0 h, replicate number 1)	other results
COc1cc2nc(C)nc(NC3(c4ccccc4)CC3)c2cc1OC	0.87	0.93	0.11	0.66	0.52	0.94	0.97	0.94	0.86												Growth Rate (Fibroblast; 6 h, replicate number 1): 0.99; Growth Rate (Fibroblast; 12 h, replicate number 1): 0.99; Growth Rate (Fibroblast; 12 h, replicate number 2): 0.7
O=C(O)Cc1ccc(CCNS(=O)(=O)c2ccc(Cl)cc2)cc1 [DALTROBAN]	0.67	0.72	-0.53						0.96	0.23	0.8	0.38	0.95	0.99							
CC[C@@H](CO)Nc1nc(Nc2cccc(NC(=O)C(C)(C)C)c2)ncc1F		0.96	0.61		0.56	0.66	0.83	0.87	0.91			0.87			0.29	0.94	0.8				Growth Rate (U2OS; 18 h, replicate number 2): 0.86; Growth Rate (U2OS; 24 h, replicate number 2): 0.89
Cc1nc(-c2ccc(C(F)(F)F)cc2)sc1C(=O)NCc1ccc(OC(C)(C)C(=O)O)cc1 [GW590735]			0.77	0.99	0.91	0.91		0.93	0.97		0.83		0.93	0.83	0.96			0.92	0.72	-0.11	Growth Rate (HEK-293T; 0 h, replicate number 2): 0.73; Growth Rate (Fibroblast; 6 h, replicate number 1): 0.76; Growth Rate (Fibroblast; 12 h, replicate number 1): 0.82; Growth Rate (Fibroblast; 18 h, replicate number 1): 0.71
O=C(Nc1c[nH]nc1-c1nc2cc(CN3CCOCC3)ccc2[nH]1)NC1CC1 [AT-9283]	-0.46	-0.38				0.31	0.78	-0.05	-0.18	-0.72	-0.8	-0.57	-0.59	0.09		0.73		-0.43	-0.3	-1	Growth Rate (Fibroblast; 18 h, replicate number 1): 0.66; Growth Rate (Fibroblast; 18 h, replicate number 2): 0.81; Growth Rate (Fibroblast; 24 h, replicate number 2): 0.43; Growth Rate (U2OS; 18 h, replicate number 2): 0.14; Growth Rate (U2OS; 24 h, replicate number 2): -0.09
O=C(Nc1cc(C(F)(F)F)cc(C(F)(F)F)c1)c1cc(Cl)ccc1O [IMD-0354]	0.76		-0.02	-1	0.76	0.7	0.03	0.69	0.71	0.18	-0.86	0.81	-0.2	0.42		-1	-0.23	0.17	0.36	-0.14	Growth Rate (Fibroblast; 0 h, replicate number 1): -0.62; Growth Rate (Fibroblast; 12 h, replicate number 2): -0.61; Growth Rate (Fibroblast; 18 h, replicate number 1): -0.63; Growth Rate (Fibroblast; 18 h, replicate number 2): -0.45; Growth Rate (Fibroblast; 24 h, replicate number 2): -0.33; Growth Rate (U2OS; 18 h, replicate number 2): 0.18; Growth Rate (U2OS; 24 h, replicate number 2): 0.26
CNC(=O)c1cc(C(=O)NC2CC2)cn(Cc2ccccc2)c1=O [GSK620]		0.93		0.25	0.54	0.69		0.66	0.88		0.74		0.76		-0.72		0.92	0.99	0.8	-0.46	Growth Rate (HEK-293T; 0 h, replicate number 2): 0.91; Growth Rate (Fibroblast; 0 h, replicate number 1): 0.38
